Reference: patent publication US7026111B2, “Methods and reagents for improved cell-based assays” (Beckman Coulter, Inc., priority 2001, dated 2006)

Legend:
[1] = test system: aminopeptidase; details: concentrations of approximately 10 mM; cited from earlier work
[2] = test system: Caspase 3; assay: Caspase 3 CellProbe assay with U-937 suspension cells; format: cell-based
Method: (§1) To initiate such assays, 25 μl of Caspase CellProbe Reagent™ (Beckman Coulter) was added to a suspension of 1×10^5 U-937 cells in 110 μl of culture medium in a 96-well microtiter plate. Cells were incubated for one hour, and had been either uninduced or induced by prior incubation in the presence of 2.5 μM Camptothecin. The final concentration of the Caspase CellProbe Reagent™ was 30 μM.
(§2) In the Figures, the 5 series of columns reflect results obtained with no glycerol, 20% glycerol, 30% glycerol, 40% glycerol and 50% glycerol. The individual columns (left to right) within each data series reflect results for: unmixed sample—induced; unmixed sample—uninduced; mixed sample—induced; and mixed sample—uninduced.

[3] = test system: Caspase 1; assay: Caspase 1 CellProbe assay with U-937 suspension cells; format: cell-based
Method: as §1, §2

[4] = test system: Caspase 6; assay: Caspase 6 CellProbe assay with U-937 suspension cells; format: cell-based
Method: as §1, §2

[5] = test system: Caspase 6; assay: Caspase 6 CellProbe assay in HeLa cells (Example 6); format: cell-based; details: HeLa 1.5×10^4 cells/well, 30 μM CellProbe, 1 hour
Method: To initiate such assays, Caspase CellProbe Reagent™ (Beckman Coulter) is added to a suspension of 1.5×10^4 HeLa cells/well in a 96-well microtiter plate. The final concentration of the Caspase CellProbe Reagent™ was 30 μM. Reaction is for 1 hour and is as described in Example 1.

[6] = test system: Caspase 6; assay: Caspase 6 CellProbe assay for apoptosis using HeLa cells (Example 2); format: cell-based
Method: To initiate 110 such assays, Caspase CellProbe Reagent™ (Beckman Coulter) is added to a suspension of 1.5×10^4 HeLa cells/well in a 96-well microtiter plate. The final concentration of the Caspase CellProbe Reagent™ was 30 μM. Reaction is for 1 hour.
In FIG. 5, and in the examples below, the Fluorescence Ratio is defined as: Fluorescence Ratio=Induced Fluorescence/Uninduced Fluorescence where the Induced Fluorescence is the difference between the 1 Hour Value and the Start of Assay Value, and the Uninduced Fluorescence is the difference between the 1 Hour Value and the Uninduced Start Value. In FIG. 5, data are plotted as a function of potassium glutamate or DMSO concentration. The dark columns indicate results obtained upon mixing the samples, while the light columns indicate results obtained when the samples were not mixed after the addition of glutamate.

[7] = test system: Caspase; assay: One hour kinetic assay detection of Caspase using U-937 cells; format: cell-based; details: above the 50% DMSO concentration; due to non-specific signal from uninduced cell controls
Method: as §1
The results shown in FIG. 4 is of kinetic signal from twenty fluorescence readings of the one hour assay. In FIG. 4, lines containing a diamond (♦) denote unmixed samples; lines containing boxes (▪) and appearing as thick lines denote mixed samples.

[8] = test system: HeLa cells; assay: CellProbe assay in HeLa cells with betaine (Example 5); format: cell-based; details: betaine 2.0-2.4 M; HeLa 7.5×10^3/well, 25 μM CellProbe substrate; particularly if unmixed
Method: The enhanced detection sensitivity of the assays of the present invention resulting from the use of Betaine (at 2.0, 2.1, 2.2, 2.3, 2.4 M) is shown in FIG. 8. For such experiments, HeLa cells are seeded overnight at 7.5×10^3/well and provided with CellProbe substrate (25 μM final concentration). […] Results of similar assays conducted with 35% DMSO are shown for comparison.

[9] = test system: HeLa cells; assay: CellProbe assay in HeLa cells with betaine (Example 4); format: cell-based; details: HeLa 1.5×10^4/well, 30 μM CellProbe substrate; particularly if unmixed
Method: For such experiments, HeLa cells are seeded overnight at 1.5×10^4/well and provided with 30 μM CellProbe substrate (final concentration).

[10] = various optimal glycerol concentrations (20-50%), U-937 cells, 30 μM CellProbe, 1 hour

Question: For [Ca+2].[Cl-].[Cl-] [calcium chloride], which “effect on enzyme reaction with the assay compound” value [1] is on record?
Answer: inhibitory

Question: With OCC(O)CO [glycerol] as the compound, how does the “relative signal, Caspase 3” value ([2]; raising the glycerol concentration from 0 to 50%, greater magnitude when unmixed) read?
Answer: significant relative signal increase

Question: And the “detection of Caspase 3 activity” value [2, 10]?
Answer: dramatic improvement

Question: And the “effect on Caspase 1 assay” value ([3]; added unmixed glycerol ~40%)?
Answer: deleterious effect

Question: And the “detection of Caspase 1 activity” value [3, 10]?
Answer: dramatic improvement

Question: What about the “effect on Caspase 6 assay” value ([4]; added unmixed glycerol ~50%) of the same compound?
Answer: deleterious effect

Question: And the “detection of Caspase 6 activity” value [4, 10]?
Answer: dramatic improvement

Question: Which “assay performance (detection sensitivity)” value (“assay performance” for short) [5] does the source give for OC[C@H]1O[C@H](O[C@H]2O[C@H](CO)[C@@H](O)[C@H](O)[C@H]2O)[C@H](O)[C@@H](O)[C@@H]1O [trehalose] here?
Answer: improved assay performance

Question: Which detection sensitivity [5] does the source give for O=C(O)[C@@H]1CCCN1 [proline] here?
Answer: did not enhance detection sensitivity

Question: With N[C@@H](CCC(=O)[O-])C(=O)[O-].[K+].[K+] [glutamate, potassium glutamate] as the compound, how does the “detection of Caspase 6 activity” value ([6]; glutamate 1.5 M, 1.7 M, 1.8 M, 2.0 M, HeLa cells, 1 hour) read?
Answer: dramatic improvement

Question: What about the assay sensitivity ([6]; inclusion of glutamate, particularly if unmixed) of the same compound?
Answer: improved assay sensitivity

Question: For OCCO [ethylene glycol], which “assay performance” value [5] is on record?
Answer: improved assay performance

Question: With CCOC(=O)CC[C@H](N)C(=O)OCC [glutamic acid diethyl ester] as the compound, how does the detection sensitivity [5] read?
Answer: did not enhance detection sensitivity

Question: With C[S+](C)[O-] [DMSO, dimethyl sulfoxide] as the compound, how does the “signal ratio (induced/uninduced)” value [7] read?
Answer: signal ratio decrease

Question: With C[N+](C)(C)CC(=O)O [betaine] as the compound, how does the assay sensitivity [8] read?
Answer: improved assay sensitivity

Question: What about the assay sensitivity [9] of the same compound?
Answer: improved assay sensitivity

Question: For OC[C@@H](O)[C@H](O)CO [threitol], which “assay performance” value [5] is on record?
Answer: improved assay performance

Question: Which “assay performance” value [5] does the source give for O=C[C@H](O)[C@H](O)[C@H](O)CO [ribose] here?
Answer: improved assay performance

Question: Which “assay performance” value [5] does the source give for C[N+](C)(C)[O-] [trimethylamine N-oxide] here?
Answer: improved assay performance
